Results: PubChem BioAssay AID493202 (Sanford-Burnham Center for Chemical Genomics, 2011)
Calls of active or inactive are those of the source.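 The calls were made as follows: active = mean EC50 below 10 µM; inactive = the rest.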

Target: Type-1 angiotensin II receptor (Homo sapiens) (UniProt P30556)
Test: AGTR1 activation selectivity check – cell-based, CHO-K1 PathHunter, luminescence, set 4, selectivity assay for APJ agonist project, SAR follow-up (AID 493202)
Conditions: CHO-K1 AGTR1 PathHunter beta-arrestin, 90 min

Chain of Type-1 angiotensin II receptor (Homo sapiens) (P30556 whole entry, looked up): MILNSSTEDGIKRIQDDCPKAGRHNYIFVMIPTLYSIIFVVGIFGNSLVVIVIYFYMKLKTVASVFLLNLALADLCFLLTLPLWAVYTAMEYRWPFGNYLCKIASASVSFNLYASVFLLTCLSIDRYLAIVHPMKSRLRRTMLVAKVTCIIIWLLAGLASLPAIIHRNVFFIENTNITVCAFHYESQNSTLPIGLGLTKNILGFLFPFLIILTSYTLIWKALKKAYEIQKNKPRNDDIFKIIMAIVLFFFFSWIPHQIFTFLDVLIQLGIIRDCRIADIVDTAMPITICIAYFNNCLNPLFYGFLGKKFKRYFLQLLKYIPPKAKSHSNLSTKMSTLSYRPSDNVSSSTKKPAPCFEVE

| Compound | EC50 |
| --- | --- |
| CC1=CC(=O)C(C(C)C)=C/C1=N/OS(=O)(=O)c1ccc(OC(F)(F)F)cc1 | > 79 µM (inactive) |
| CC1=CC(=O)C(C(C)C)=C/C1=N/OS(=O)(=O)c1ccc(C(F)(F)F)cc1 | > 79 µM (inactive) |
| CC1=CC(=O)C(C(C)C)=C/C1=N/OS(=O)(=O)c1cccnc1 | > 79 µM (inactive) |
| CC1=CC(=O)C(C(C)C)=C/C1=N/OS(=O)(=O)c1ccc(C(C)(C)C)cc1 | > 79 µM (inactive) |

Other lines, results leading:

| EC50 | Compound |
| --- | --- |
| > 79 µM (inactive) | O=S(=O)(Nc1cc(Cl)c(O)c(Cl)c1)c1ccccc1 |
| > 79 µM (inactive) | Cc1cc(O)c(C(C)C)cc1NS(=O)(=O)c1ccccc1 |
| > 79 µM (inactive) | COC(=O)c1cc(NS(=O)(=O)c2ccccc2)ccc1O |
